# Results reported in patent publication US8680012B2, “4-phenyl-pyrane-3,5-diones,4-phenyl-thiopyrane-3,6-diones and cyclohexanetriones as novel herbicides” (Syngenta Crop Protection LLC, priority 2006, dated 2014).
# System: Solanum nigrum (SOLNI)
# Assay: Example B pre-emergence herbicidal activity, glasshouse pot test
# Type: in vivo
# Conditions: 312 h, rate 1000 g/ha, evaluated after 13 days, read-out: Pre-emergence activity SOLNI (100=total damage to plant; 0=no damage to plant)
# How it was run: (§1)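 Damage rating, 0–100, at 13 d after application. Spray solution: a.i. in acetone/water (50:50), 0.5% Tween 20. Applied 1 d after sowing or at 8 d growth; pots held at 24/16 °C, 14 h light, 65% humidity.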
row,Structure (SMILES),pest or weed control at 1000 g/ha
1,CCOC(=O)OC1=C(c2cc(-c3ccc(Cl)cc3)ccc2CC)C(=O)C(C)(C)OC1(C)C [Compound D-13],0%
2,CCc1ccc(-c2ccc(Cl)cc2)cc1C1=C(OC(=O)OCC(C)C)C(C)(C)OC(C)(C)C1=O [Compound D-14],0%
3,C#CCOC(=O)OC1=C(c2cc(-c3ccc(Cl)cc3)ccc2CC)C(=O)C(C)(C)OC1(C)C [Compound D-15],0%

# System: Amaranthus retroflexus (AMARE)
# Assay: as above
# Type: in vivo
# Conditions: 312 h, rate 1000 g/ha, evaluated after 13 days, read-out: Pre-emergence activity AMARE (100=total damage to plant; 0=no damage to plant)
# How it was run: as §1
row,Structure (SMILES),pest or weed control at 1000 g/ha
1,CCOC(=O)OC1=C(c2cc(-c3ccc(Cl)cc3)ccc2CC)C(=O)C(C)(C)OC1(C)C [Compound D-13],0%
2,CCc1ccc(-c2ccc(Cl)cc2)cc1C1=C(OC(=O)OCC(C)C)C(C)(C)OC(C)(C)C1=O [Compound D-14],0%
3,C#CCOC(=O)OC1=C(c2cc(-c3ccc(Cl)cc3)ccc2CC)C(=O)C(C)(C)OC1(C)C [Compound D-15],0%

# System: Alopecurus myosuroides (ALOMY)
# Assay: as above
# Type: in vivo
# Conditions: 312 h, rate 1000 g/ha, evaluated after 13 days, read-out: Pre-emergence activity ALOMY (100=total damage to plant; 0=no damage to plant)
# How it was run: as §1
row,Structure (SMILES),pest or weed control at 1000 g/ha
1,CCOC(=O)OC1=C(c2cc(-c3ccc(Cl)cc3)ccc2CC)C(=O)C(C)(C)OC1(C)C [Compound D-13],50%
2,CCc1ccc(-c2ccc(Cl)cc2)cc1C1=C(OC(=O)OCC(C)C)C(C)(C)OC(C)(C)C1=O [Compound D-14],50%
3,C#CCOC(=O)OC1=C(c2cc(-c3ccc(Cl)cc3)ccc2CC)C(=O)C(C)(C)OC1(C)C [Compound D-15],80%

# System: Avena fatua (AVEFA)
# Assay: as above
# Type: in vivo
# Conditions: 312 h, rate 1000 g/ha, evaluated after 13 days, read-out: Pre-emergence activity AVEFA (100=total damage to plant; 0=no damage to plant)
# How it was run: as §1
row,Structure (SMILES),pest or weed control at 1000 g/ha
1,CCOC(=O)OC1=C(c2cc(-c3ccc(Cl)cc3)ccc2CC)C(=O)C(C)(C)OC1(C)C [Compound D-13],20%
2,CCc1ccc(-c2ccc(Cl)cc2)cc1C1=C(OC(=O)OCC(C)C)C(C)(C)OC(C)(C)C1=O [Compound D-14],20%
3,C#CCOC(=O)OC1=C(c2cc(-c3ccc(Cl)cc3)ccc2CC)C(=O)C(C)(C)OC1(C)C [Compound D-15],60%

# System: Setaria faberi (SETFA)
# Assay: as above
# Type: in vivo
# Conditions: 312 h, rate 1000 g/ha, evaluated after 13 days, read-out: Pre-emergence activity SETFA (100=total damage to plant; 0=no damage to plant)
# How it was run: as §1
row,Structure (SMILES),pest or weed control at 1000 g/ha
1,CCOC(=O)OC1=C(c2cc(-c3ccc(Cl)cc3)ccc2CC)C(=O)C(C)(C)OC1(C)C [Compound D-13],90%
2,CCc1ccc(-c2ccc(Cl)cc2)cc1C1=C(OC(=O)OCC(C)C)C(C)(C)OC(C)(C)C1=O [Compound D-14],90%
3,C#CCOC(=O)OC1=C(c2cc(-c3ccc(Cl)cc3)ccc2CC)C(=O)C(C)(C)OC1(C)C [Compound D-15],100%

# System: Echinochloa crus-galli (ECHCG)
# Assay: as above
# Type: in vivo
# Conditions: 312 h, rate 1000 g/ha, evaluated after 13 days, read-out: Pre-emergence activity ECHCG (100=total damage to plant; 0=no damage to plant)
# How it was run: as §1
row,Structure (SMILES),pest or weed control at 1000 g/ha
1,CCOC(=O)OC1=C(c2cc(-c3ccc(Cl)cc3)ccc2CC)C(=O)C(C)(C)OC1(C)C [Compound D-13],90%
2,CCc1ccc(-c2ccc(Cl)cc2)cc1C1=C(OC(=O)OCC(C)C)C(C)(C)OC(C)(C)C1=O [Compound D-14],60%
3,C#CCOC(=O)OC1=C(c2cc(-c3ccc(Cl)cc3)ccc2CC)C(=O)C(C)(C)OC1(C)C [Compound D-15],100%

# System: Solanum nigrum (SOLNI)
# Assay: Example B post-emergence herbicidal activity, glasshouse pot test
# Type: in vivo
# Conditions: 312 h, rate 1000 g/ha, evaluated after 13 days, read-out: Post-emergence activity SOLNI (100=total damage to plant; 0=no damage to plant)
# How it was run: as §1
row,Structure (SMILES),pest or weed control at 1000 g/ha
1,CCOC(=O)OC1=C(c2cc(-c3ccc(Cl)cc3)ccc2CC)C(=O)C(C)(C)OC1(C)C [Compound D-13],0%
2,CCc1ccc(-c2ccc(Cl)cc2)cc1C1=C(OC(=O)OCC(C)C)C(C)(C)OC(C)(C)C1=O [Compound D-14],0%
3,C#CCOC(=O)OC1=C(c2cc(-c3ccc(Cl)cc3)ccc2CC)C(=O)C(C)(C)OC1(C)C [Compound D-15],0%

# System: Amaranthus retroflexus (AMARE)
# Assay: as above
# Type: in vivo
# Conditions: 312 h, rate 1000 g/ha, evaluated after 13 days, read-out: Post-emergence activity AMARE (100=total damage to plant; 0=no damage to plant)
# How it was run: as §1
row,Structure (SMILES),pest or weed control at 1000 g/ha
1,CCOC(=O)OC1=C(c2cc(-c3ccc(Cl)cc3)ccc2CC)C(=O)C(C)(C)OC1(C)C [Compound D-13],0%
2,CCc1ccc(-c2ccc(Cl)cc2)cc1C1=C(OC(=O)OCC(C)C)C(C)(C)OC(C)(C)C1=O [Compound D-14],0%
3,C#CCOC(=O)OC1=C(c2cc(-c3ccc(Cl)cc3)ccc2CC)C(=O)C(C)(C)OC1(C)C [Compound D-15],0%

# System: Alopecurus myosuroides (ALOMY)
# Assay: as above
# Type: in vivo
# Conditions: 312 h, rate 1000 g/ha, evaluated after 13 days, read-out: Post-emergence activity ALOMY (100=total damage to plant; 0=no damage to plant)
# How it was run: as §1
row,Structure (SMILES),pest or weed control at 1000 g/ha
1,CCOC(=O)OC1=C(c2cc(-c3ccc(Cl)cc3)ccc2CC)C(=O)C(C)(C)OC1(C)C [Compound D-13],60%
2,CCc1ccc(-c2ccc(Cl)cc2)cc1C1=C(OC(=O)OCC(C)C)C(C)(C)OC(C)(C)C1=O [Compound D-14],20%
3,C#CCOC(=O)OC1=C(c2cc(-c3ccc(Cl)cc3)ccc2CC)C(=O)C(C)(C)OC1(C)C [Compound D-15],80%

# System: Avena fatua (AVEFA)
# Assay: as above
# Type: in vivo
# Conditions: 312 h, rate 1000 g/ha, evaluated after 13 days, read-out: Post-emergence activity AVEFA (100=total damage to plant; 0=no damage to plant)
# How it was run: as §1
row,Structure (SMILES),pest or weed control at 1000 g/ha
1,CCOC(=O)OC1=C(c2cc(-c3ccc(Cl)cc3)ccc2CC)C(=O)C(C)(C)OC1(C)C [Compound D-13],0%
2,CCc1ccc(-c2ccc(Cl)cc2)cc1C1=C(OC(=O)OCC(C)C)C(C)(C)OC(C)(C)C1=O [Compound D-14],10%
3,C#CCOC(=O)OC1=C(c2cc(-c3ccc(Cl)cc3)ccc2CC)C(=O)C(C)(C)OC1(C)C [Compound D-15],60%

# System: Setaria faberi (SETFA)
# Assay: as above
# Type: in vivo
# Conditions: 312 h, rate 1000 g/ha, evaluated after 13 days, read-out: Post-emergence activity SETFA (100=total damage to plant; 0=no damage to plant)
# How it was run: as §1
row,Structure (SMILES),pest or weed control at 1000 g/ha
1,CCOC(=O)OC1=C(c2cc(-c3ccc(Cl)cc3)ccc2CC)C(=O)C(C)(C)OC1(C)C [Compound D-13],100%
2,CCc1ccc(-c2ccc(Cl)cc2)cc1C1=C(OC(=O)OCC(C)C)C(C)(C)OC(C)(C)C1=O [Compound D-14],100%
3,C#CCOC(=O)OC1=C(c2cc(-c3ccc(Cl)cc3)ccc2CC)C(=O)C(C)(C)OC1(C)C [Compound D-15],100%

# System: Echinochloa crus-galli (ECHCG)
# Assay: as above
# Type: in vivo
# Conditions: 312 h, rate 1000 g/ha, evaluated after 13 days, read-out: Post-emergence activity ECHCG (100=total damage to plant; 0=no damage to plant)
# How it was run: as §1
row,Structure (SMILES),pest or weed control at 1000 g/ha
1,CCOC(=O)OC1=C(c2cc(-c3ccc(Cl)cc3)ccc2CC)C(=O)C(C)(C)OC1(C)C [Compound D-13],100%
2,CCc1ccc(-c2ccc(Cl)cc2)cc1C1=C(OC(=O)OCC(C)C)C(C)(C)OC(C)(C)C1=O [Compound D-14],100%
3,C#CCOC(=O)OC1=C(c2cc(-c3ccc(Cl)cc3)ccc2CC)C(=O)C(C)(C)OC1(C)C [Compound D-15],100%
